What was measured:
MCF7 = assay: Cytotoxicity against human MCF7 cells after 24 hrs by FACS analysis; type: functional, cell-based; settings: MCF7, 24 h
[1] = Cytotoxicity against human KATO III cells after 24 hrs by FACS analysis; type: functional, cell-based, KATO III cell
A549 [2] = assay: Cytotoxicity against human A549 cells after 24 hrs by FACS analysis; type: functional, cell-based; settings: A549, 24 h
A549 [3] = assay: Inhibition of Akt phosphorylation in insulin-stimulated human A549 cells at 10 uM treated 2 hrs before insulin stimulation measured after 30 mins by ELISA; type: cell-based
[4] = Inhibition of Akt phosphorylation in insulin-stimulated human A549 cells treated 2 hrs before insulin stimulation measured after 30 mins by ELISA; type: cell-based
A549 [5] = assay: Ratio of perifosine IC50 to compound IC50 for inhibition of Akt phosphorylation in insulin-stimulated human A549 cells; type: cell-based
A549 [6] = assay: Ratio of miltefosine IC50 to compound IC50 for inhibition of Akt phosphorylation in insulin-stimulated human A549 cells; type: cell-based
A549 [7] = assay: Ratio of erufosine IC50 to compound IC50 for inhibition of Akt phosphorylation in insulin-stimulated human A549 cells; type: cell-based

Structure (SMILES)	IC50 [4] [µM]	IC50 (MCF7) [µM]	IC50 [1] [µM]	IC50 (A549 [2]) [µM]	inhibition (A549 [3]) [%]	Ratio IC50 (A549 [5])	Ratio IC50 (A549 [6])	Ratio IC50 (A549 [7])
CCCCCCCCCCCCOC[C@@H]1CCC[C@H]1OP(=O)([O-])OCC[N+](C)(C)C (racemic)	–	11.8	10.6	11	36.2	–	–	–
CCCCCCCCCCCCO[C@@H]1CCC[C@H]1COP(=O)([O-])OCC[N+](C)(C)C (racemic)	–	14.7	10.4	–	31.7	–	–	–
CCCCCCCCCCCCCO[C@@H]1CCC[C@H]1COP(=O)([O-])OCC[N+](C)(C)C (racemic)	–	17.8	10.1	9.4	40.8	–	–	–
CCCCCCCCCCCCCCCCCCO[C@@H]1CCC[C@H]1COP(=O)([O-])OCC[N+](C)(C)C (racemic)	–	15.7	8.2	19.3	32.4	–	–	–
CCCCCCCCCCCCO[C@H]1CCC[C@H]1COP(=O)([O-])OCC[N+](C)(C)C (racemic)	–	24.2	7.4	26.3	30.4	–	–	–
CCCCCCCCCCCCCO[C@H]1CCC[C@H]1COP(=O)([O-])OCC[N+](C)(C)C (racemic)	–	10.7	12.1	10.2	44.7	–	–	–
CCCCCCCCCCCCCCCCCCO[C@H]1CCC[C@H]1COP(=O)([O-])OCC[N+](C)(C)C (racemic)	–	13.2	9.2	17.8	35.2	–	–	–
CCCCCCCCCCCCCCCCCCCCCCO[C@H]1CCC[C@H]1COP(=O)([O-])OCC[N+](C)(C)C (racemic)	–	12.8	8.6	23.3	36.2	–	–	–

Further lines, with some results ahead:

IC50 [4] [µM]	Structure (SMILES)	IC50 (MCF7) [µM]	IC50 [1] [µM]	IC50 (A549 [2]) [µM]	inhibition (A549 [3]) [%]	Ratio IC50 (A549 [5])	Ratio IC50 (A549 [6])	Ratio IC50 (A549 [7])
6.6	CCCCCCCCCCCCCOC[C@@H]1CCC[C@H]1OP(=O)([O-])OCC[N+](C)(C)C (racemic)	7.7	10.2	6.1	65.4	–	–	–
10.3	CCCCCCCCCCCCCCCCCCOC[C@@H]1CCC[C@H]1OP(=O)([O-])OCC[N+](C)(C)C (racemic)	13.8	10.4	10.8	63.4	–	–	–
3.6	CCCCCCCCCCCCCCCCCCCCOC[C@@H]1CCC[C@H]1OP(=O)([O-])OCC[N+](C)(C)C (racemic)	10.8	8.7	6.4	74.4	2	3	3
10	CCCCCCCCCCCCCCCCCCCCCCOC[C@@H]1CCC[C@H]1OP(=O)([O-])OCC[N+](C)(C)C (racemic)	16.3	11.9	16	58.2	–	–	–
9.1	CCCCCCCCCCCCCCCCCCCCO[C@@H]1CCC[C@H]1COP(=O)([O-])OCC[N+](C)(C)C (racemic)	15.6	7.7	9.8	58.9	–	–	–
6.5	CCCCCCCCCCCCCCCCCCCCCCO[C@@H]1CCC[C@H]1COP(=O)([O-])OCC[N+](C)(C)C (racemic)	19.5	17.6	11.1	68	–	–	–
16.3	CCCCCCCCCCCCCCCCCCCCO[C@H]1CCC[C@H]1COP(=O)([O-])OCC[N+](C)(C)C (racemic)	16.3	8.8	9.7	54.4	–	–	–
9.6	CCCCCCCCCCCCCCCCOP(=O)([O-])OCC[N+](C)(C)C [MILTEFOSINE]	11.4	12.1	9.7	56.3	–	–	–
5.3	CCCCCCCCCCCCCCCCCCOP(=O)([O-])OC1CC[N+](C)(C)CC1 [PERIFOSINE]	13.3	12.8	7	68	–	–	–

From ChEMBL document CHEMBL1926533, “Synthesis and biological evaluation of cyclopentane-linked alkyl phosphocholines as potential anticancer agents that act by inhibiting Akt phosphorylation” (Eur J Med Chem, 2012)
